Legend:
[1] = target: T1, Stimulator of interferon genes protein (Homo sapiens, UniProt Q86WV6); assay: Agonist activity at STING in human THP1-Dual cells incubated for 20 hrs by Quanti-luc reagent based assay; assay type: cell-based
[2] = target: T1, Stimulator of interferon genes protein; assay: Agonist activity at STING in human […] KO-STING cells incubated for 20 hrs by Quanti-luc reagent based assay; assay type: cell-based, THP1-Dual KO-STING
[3] = test system: THP1-Dual; assay: Cytotoxicity against human THP1-Dual habouring STING assessed as inhibition of cell growth by MTS assay; assay type: functional, cell-based
[4] = Cytotoxicity against human THP1-Dual KO-STING cells assessed as inhibition of cell growth by MTS assay; assay type: functional, cell-based

T1 sequence (Q86WV6 whole entry): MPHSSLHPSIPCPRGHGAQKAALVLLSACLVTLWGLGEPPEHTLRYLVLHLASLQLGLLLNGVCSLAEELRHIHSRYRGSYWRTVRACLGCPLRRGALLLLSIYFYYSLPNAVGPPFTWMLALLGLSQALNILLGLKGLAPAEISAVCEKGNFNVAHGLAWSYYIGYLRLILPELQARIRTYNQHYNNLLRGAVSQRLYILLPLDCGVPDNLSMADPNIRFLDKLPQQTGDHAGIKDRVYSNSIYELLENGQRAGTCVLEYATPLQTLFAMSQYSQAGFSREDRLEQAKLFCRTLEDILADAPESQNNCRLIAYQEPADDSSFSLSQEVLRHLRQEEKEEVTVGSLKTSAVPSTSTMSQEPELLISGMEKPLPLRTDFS

EC50 [1] | EC50 [2] | SMILES | IC50 [3] | IC50 [4]
3.22 µM | > 100 µM | CCn1nc(C)cc1C(=O)Nc1nc2cc(C(N)=O)cc(OC)c2n1NCCCC(=O)NCc1ccc(Cl)cc1 | > 100 µM | > 100 µM
> 100 µM | > 100 µM | CCn1nc(C)cc1C(=O)Nc1nc2cc(C(N)=O)cc(OC)c2n1CCOCCNC(=O)c1ccc(OC)cc1 | > 100 µM | > 100 µM
> 100 µM | > 100 µM | CCn1nc(C)cc1C(=O)Nc1nc2cc(C(N)=O)cc(OC)c2n1CCCNC(=O)c1ccc(-c2ccccc2)cc1 | > 100 µM | > 100 µM
> 100 µM | > 100 µM | CCn1nc(C)cc1C(=O)Nc1nc2cc(C(N)=O)cc(OC)c2n1C/C=C/Cn1c(C)nc2cc(C(N)=O)ccc21 | > 100 µM | > 100 µM
7.04 µM | > 100 µM | CCn1nc(C)cc1C(=O)Nc1nc2cc(C(N)=O)cc(OC)c2n1CCCC(=O)NCc1ccc2ccccc2c1 | > 100 µM | > 100 µM
> 100 µM | > 100 µM | CCn1nc(C)cc1C(=O)Nc1nc2cc(C(N)=O)cc(OC)c2n1CCCN1CCC(C(=O)Nc2ccc3ccccc3c2)CC1 | > 100 µM | > 100 µM
> 100 µM | > 100 µM | CCn1nc(C)cc1C(=O)Nc1nc2cc(C(N)=O)cc(OC)c2n1C/C=C/CNC(=O)c1ccc(F)cc1 | > 100 µM | > 100 µM
> 100 µM | > 100 µM | CCn1nc(C)cc1C(=O)Nc1nc2cc(C(N)=O)cc(OC)c2n1NCCCC(=O)NCc1ccc(Cl)cc1C(F)(F)F | > 100 µM | > 100 µM
1.12 µM | > 100 µM | CCn1nc(C)cc1C(=O)Nc1nc2cc(C(N)=O)cc(OCC3CC3)c2n1NCCCNC(=O)c1ccc2ccccc2c1 | > 100 µM | 12.1 µM
0.53 µM | > 100 µM | CCn1nc(C)cc1C(=O)Nc1nc2cc(C(N)=O)cc(OCCCOC)c2n1NCCCNC(=O)c1ccc2ccccc2c1 | 10.6 µM | 14.8 µM
> 100 µM | > 100 µM | CCn1nc(C)cc1C(=O)Nc1nc2cc(C(N)=O)cc(OC)c2n1CCCNC(=O)c1ccccc1 | > 100 µM | > 100 µM

— ChEMBL document CHEMBL5331071, “Structure-activity relationship study of amidobenzimidazole derivatives as stimulator of interferon genes (STING) agonists” (Eur J Med Chem, 2023)
